Assay results published in patent publication US20240279207A1, “SUBSTITUTED ACYL SULFONAMIDES FOR TREATING CANCER” (The Broad Institute, Inc., priority 2020, published 2024).

How the values were obtained:
[1] = target: T1, Recombinant human His-tagged Kat6a protein (amino acids 194-810) (Homo sapiens, UniProt Q92794); assay: Kat6a activity assay (TR-FRET, acetylation of Histone-H4-derived peptide); type: biochemical; details: 60 mins at 22° C., 220 nM H4 peptide, 600 nM Acetyl Coenzyme A, read-out: KAT6A - DPF/HAT domain IC50 [mol/l] (arithmetic mean)
T1 construct: Kat6a protein (amino acids 194-810); His
T1 sequence (Q92794 194-810): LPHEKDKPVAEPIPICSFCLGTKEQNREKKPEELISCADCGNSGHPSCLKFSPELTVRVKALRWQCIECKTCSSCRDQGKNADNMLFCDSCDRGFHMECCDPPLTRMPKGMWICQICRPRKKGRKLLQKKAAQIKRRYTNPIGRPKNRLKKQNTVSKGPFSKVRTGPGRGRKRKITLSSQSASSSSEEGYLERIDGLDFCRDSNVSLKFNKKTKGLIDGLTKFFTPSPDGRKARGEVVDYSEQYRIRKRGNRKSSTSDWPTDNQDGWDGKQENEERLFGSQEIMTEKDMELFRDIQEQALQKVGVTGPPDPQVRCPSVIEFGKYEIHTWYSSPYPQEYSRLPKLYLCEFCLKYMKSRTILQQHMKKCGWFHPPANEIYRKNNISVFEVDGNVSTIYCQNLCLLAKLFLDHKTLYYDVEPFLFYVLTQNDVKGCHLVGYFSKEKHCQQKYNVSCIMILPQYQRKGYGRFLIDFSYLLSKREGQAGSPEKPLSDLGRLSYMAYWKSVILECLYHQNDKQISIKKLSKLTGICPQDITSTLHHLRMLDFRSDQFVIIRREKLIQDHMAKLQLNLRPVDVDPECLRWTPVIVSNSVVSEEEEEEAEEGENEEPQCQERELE

[2] = test system: ESR1 transcription in MVLN cells; assay: MVLN reporter assay: repression of ESR1 transcription (luciferase signal); type: cell-based; details: Homo sapiens, MVLN, 24 h, luciferase signal after 24 h, read-out: MVLN reporter assay, IC50 [M] (arithmetic mean)
Outline: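 MVLN cells, expressing ER and stably carrying a vitellogenin A2 ERE-luciferase reporter, treated with compound in duplicate; luciferase read after 24 h with Steadylite plus. Cell density checked in parallel by Alamar Blue fluorescence (530/590 nm, 2 h) before the luciferase read.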

ZR-75-1 cells = assay: ZR-75-1 proliferation assay; type: cell-based; details: Homo sapiens, ZR-75-1, 144 h, Alamar Blue, read-out: ZR75-1 proliferation assay, EC50 [M] (arithmetic mean)
Source text: (§1) For compound characterization cell survival assays were routinely run in two cell lines. ZR-75-1 is a breast carcinoma cell line containing a focal KAT6A amplification and high KAT6A protein expression. Proliferation of this cell line is inhibited upon treatment with KAT6A inhibitors. As a negative control cell line MDA-MB-436 were used. These cells carry a […] deletion of the KAT6A gene, have a low KAT6A protein expression and are not growth inhibited upon treatment with KAT6A inhibitors.
(§2) For measurements cell lines were plated at the below indicated concentration per […] in 96-well plates in a humidified incubator at 37° C. and 5% CO2.
ZR-75-1 (ATCC, CRL-1500; breast carcinoma); 3000 cells per well; culture medium: RPMI 1640 (Biochrom #FG 1215) medium containing 2.5% FBS (Biochrom #S0615).
(§3) Each sample was prepared as triplicate and rim wells were excluded. Plates were incubated at 37° C. and 5% CO2 for 144 h. Cell viability was measured by adding 10 μL of Alamar Blue Reagent (Invitrogen #DAL 1100) and plates were incubated for 2 h at 37° C. and 5% CO2. Fluorescence was measured at 590 nm wavelength with a Tecan Spark or Victor X3 MTP-Reader (PerkinElmer).

LCLC97TM1 = LCLC97TM1 proliferation assay; type: cell-based; details: Homo sapiens, LCLC-97TM1, LCLC97TM1; read-out: LCLC97TM1 proliferation assay; EC50 [M] (arithmetic mean)
MDA-MB-436 cells = assay: MDA-MB-436 proliferation assay (negative control cell line); type: cell-based; details: Homo sapiens, 144 h, Alamar Blue, read-out: MDA-MB-436 proliferation assay, EC50 [M] (arithmetic mean)
Source text: as §1, §2
MDA-MB-436 (CLS, 300278; breast adenocarcinoma); 3000 cells per well; culture medium: DMEM/Ham's F12 (Biochrom #FG 4815) medium containing 2.5% FBS (Biochrom #S0615).
as §3

IC50 [1] [µM] | IC50 [2] [M] | EC50 (MDA-MB-436 cells) [M] | Structure (SMILES) | EC50 (ZR-75-1 cells) [M] | EC50 (LCLC97TM1) [M]
0.203 | 1.45e-06 | > 2e-05 | Cc1ccc2cccc(S(=O)(=O)NC(=O)c3cc4c(F)cc(N5CCC5C(F)F)cc4o3)c2n1 (racemic) [Example 160, 6-[2-(Difluoromethyl)azetidin-1-yl]-4-fluoro-N-(2-methylquinoline-8-sulfonyl)-1-benzofuran-2-carboxamide (rac)] | 4.34e-06 | > 2e-05
 | 3.54e-09 | > 2e-05 | COc1ccc(C(C)(C)C)cc1S(=O)(=O)NC(=O)c1cc2c(F)cc(N3CCC3)cc2o1 [Example 127, 6-(Azetidin-1-yl)-N-(5-tert-butyl-2-methoxybenzene-1-sulfonyl)-4-fluoro-1-benzofuran-2-carboxamide] | 2.55e-08 | 5.73e-08
1.85 | 3.86e-06 | > 2e-05 | CCOc1ccccc1S(=O)(=O)NC(=O)c1cc2c(F)cc(N3CCC3(C)C)cc2o1 [Example 219, 6-(2,2-Dimethylazetidin-1-yl)-N-(2-ethoxyphenyl)sulfonyl-4-fluoro-benzofuran-2-carboxamide] |  | 
> 20 | > 2e-05 | > 2e-05 | CCOc1ccccc1S(=O)(=O)NC(=O)c1cc2ccc(N3CC(C)(C)C3)cc2o1 [Example 124, 6-(3,3-dimethylazetidin-1-yl)-N-(2-ethoxybenzene-1-sulfonyl)-1-benzofuran-2-carboxamide] |  | 
0.0694 | 2.06e-07 | > 2e-05 | O=C(NS(=O)(=O)c1ccccc1OC(F)(F)F)c1cc2c(F)cc(N3CCC3)cc2o1 [Example 138, 6-(Azetidin-1-yl)-4-fluoro-N-[2-(trifluoromethoxy)benzene-1-sulfonyl]-1-benzofuran-2-carboxamide] |  | 
0.0456 | 1.4e-07 | > 2e-05 | CCc1cccc(OC)c1S(=O)(=O)NC(=O)c1cc2c(F)cc(N3CCC3)cc2o1 [Example 136, 6-(azetidin-1-yl)-N-(2-ethyl-6-methoxybenzene-1-sulfonyl)-4-fluoro-1-benzofuran-2-carboxamide] |  | 

The next lines start with the molecule.

Structure (SMILES) | IC50 [1] [µM] | IC50 [2] [M] | EC50 (MDA-MB-436 cells) [M] | EC50 (ZR-75-1 cells) [M] | EC50 (LCLC97TM1) [M]
CCOc1ccccc1S(=O)(=O)NC(=O)c1cc2ccc(N3CC(C)(F)C3)cc2o1 [Example 116, N-(2-Ethoxybenzene-1-sulfonyl)-6-(3-fluoro-3-methylazetidin-1-yl)-1-benzofuran-2-carboxamide] | 2.29 | 1.45e-06 |  | 5.72e-06 | > 2e-05
O=C(NS(=O)(=O)c1ccccc1-c1ccccc1)c1cc2c(F)cc(N3CCC3)cc2o1 [Example 19, 6-(Azetidin-1-yl)-N-([1,1′-biphenyl]-2-sulfonyl)-4-fluoro-1-benzofuran-2-carboxamide] | 0.0188 | 2.06e-07 | > 2e-05 |  | 
CCOc1ccccc1S(=O)(=O)NC(=O)c1cc2ccc(N3CC4(CC4)C3)cc2o1 [Example 122, 6-(5-Azaspiro[2.3]hexan-5-yl)-N-(2-ethoxybenzene-1-sulfonyl)-1-benzofuran-2-carboxamide] | > 20 | > 2e-05 | > 2e-05 |  | 
CCOc1ccccc1S(=O)(=O)NC(=O)c1cc2c(F)cc(N3CCC3C)cc2o1 (racemic) [Example 223, N-(2-Ethoxyphenyl)sulfonyl-4-fluoro-6-(2-methylazetidin-1-yl)benzofuran-2-carboxamide (rac)] | 0.189 | 7.22e-07 | > 2e-05 |  | 
CCOc1ccccc1S(=O)(=O)NC(=O)c1cc2ccc(N3CC(c4ccccc4)C3)cc2o1 [Example 120, N-(2-ethoxybenzene-1-sulfonyl)-6-(3-phenylazetidin-1-yl)-1-benzofuran-2-carboxamide] | 6.52 | > 2e-05 | > 2e-05 |  | 
Cc1ccc2cccc(S(=O)(=O)NC(=O)c3cc4c(F)cc(N5CCC5(C)C)cc4o3)c2n1 [Example 218, 6-(2,2-Dimethylazetidin-1-yl)-4-fluoro-N-[(2-methyl-8-quinolyl)sulfonyl]benzofuran-2-carboxamide] | 0.271 | 1.91e-06 | > 2e-05 |  | 
